Data: the NIST ThermoML archive (doi:10.1021/je800468h)
Values joined by “and” are separate entries in the source; they are usually repeats but may differ in a detail not shown here. Equal entries are not always repeated.

Experiments:
[1] = xn = mol fraction of the nth substance listed; conditions: 298.15 K, 101 kPa, Liquid; for electrical conductivity: Alternating current cell with electrodes; for mass density: Vibrating tube method
[2] = 298.15 K, 101 kPa, Liquid; for electrical conductivity: Alternating current cell with electrodes; for mass density: Vibrating tube method

CCCCn1cc[n+](C)c1.F[B-](F)(F)F [1-butyl-3-methylimidazolium tetrafluoroborate] + C[S+](C)[O-]
[1]
Conditions | electrical conductivity [S/m] | mass density [kg/m3]
x1 = 0.01925 | 0.687 | 1101.56
x1 = 0.03427 | 1.029 | 1106.21
x1 = 0.07837 | 1.56 | 1117.8
x1 = 0.1247 | 1.715 | 1128.31
x1 = 0.1866 | 1.67 | 1139.5
x1 = 0.2554 | 1.502 | 1150.71
x1 = 0.3251 | 1.31 | 1159.4
x1 = 0.4423 | 1.015 | 1171.71
x1 = 0.5246 | 0.854 | 1178.2
x1 = 0.6132 | 0.711 | 1184.27
x1 = 0.7494 | 0.543 | 1192.13

CCn1cc[n+](C)c1.F[B-](F)(F)F [1-ethyl-3-methylimidazolium tetrafluoroborate]
[2]
Conditions | electrical conductivity [S/m] | mass density
– | 1.55 | 1283.7 kg/m3 and 1283.7 kg/m3 and 1280.38 kg/m3

CCCCCCn1cc[n+](C)c1.F[B-](F)(F)F [1-hexyl-3-methylimidazolium tetrafluoroborate]
[2]
Conditions | electrical conductivity [S/m] | mass density [kg/m3]
– | 0.1228 | 1146.34

CCCCn1cc[n+](C)c1.N#CN=C=[N-] [1-butyl-3-methylimidazolium dicyanamide]
[2]
Conditions | electrical conductivity [S/m] | mass density [kg/m3]
– | 1.139 | 1059.12

CCCCCCn1cc[n+](C)c1.F[B-](F)(F)F [1-hexyl-3-methylimidazolium tetrafluoroborate] + CC#N
[1]
Conditions | electrical conductivity [S/m] | mass density [kg/m3]
x1 = 0.004117 | 0.838 | 784.24
x1 = 0.008445 | 1.442 | 791.63
x1 = 0.01744 | 2.35 | 806.26
x1 = 0.03816 | 3.51 | 836.42
x1 = 0.06486 | 4.13 | 869.76
x1 = 0.09763 | 4.25 | 903.86
x1 = 0.1399 | 3.96 | 939.67
x1 = 0.1943 | 3.37 | 975.94
x1 = 0.2712 | 2.53 | 1014.86
x1 = 0.3907 | 1.543 | 1056.74
x1 = 0.5902 | 0.656 | 1100.45
x1 = 0.7435 | 0.344 | 1122.12
x1 = 0.8889 | 0.192 | 1137.2
x1 = 1 | 0.1228 | 1146.34

CCCCCCn1cc[n+](C)c1.F[B-](F)(F)F [1-hexyl-3-methylimidazolium tetrafluoroborate] + O
[1]
Conditions | electrical conductivity | mass density
x1 = 0.0007116 | 0.327 S/m | 998.06 kg/m3
x1 = 0.001428 | 0.567 S/m | 999.52 kg/m3
x1 = 0.001482 | 0.608 S/m | 999.64 kg/m3
x1 = 0.002238 | 0.854 S/m | 1001.24 kg/m3
x1 = 0.00296 | 1.05 S/m and 1.06 S/m | 1002.63 kg/m3 and 1002.7 kg/m3
x1 = 0.003642 | 1.225 S/m | 1003.94 kg/m3
x1 = 0.00447 | 1.411 S/m | 1005.24 kg/m3
x1 = 0.004747 | 1.47 S/m | 1005.61 kg/m3
x1 = 0.2816 | 2.03 S/m | 1113.63 kg/m3
x1 = 0.314 | 1.829 S/m | 1116.76 kg/m3
x1 = 0.3441 | 1.66 S/m | 1119.43 kg/m3
x1 = 0.3813 | 1.46 S/m | 1122.43 kg/m3
x1 = 0.4148 | 1.29 S/m | 1124.75 kg/m3
x1 = 0.5139 | 0.898 S/m | 1130.58 kg/m3
x1 = 0.5161 | 0.885 S/m | 1130.73 kg/m3
x1 = 0.7069 | 0.417 S/m | 1138.7 kg/m3
x1 = 1 | 0.1228 S/m | 1146.34 kg/m3

CCCCn1cc[n+](C)c1.F[B-](F)(F)F [1-butyl-3-methylimidazolium tetrafluoroborate] + CO
[1]
Conditions | electrical conductivity [S/m] | mass density [kg/m3]
x1 = 0.007409 | 0.867 | 802.48
x1 = 0.01543 | 1.45 | 818.28
x1 = 0.02435 | 1.97 | 834.29
x1 = 0.03355 | 2.4 | 849.76
x1 = 0.05717 | 3.3 | 885.02
x1 = 0.08589 | 3.81 | 921.13
x1 = 0.1242 | 4.18 | 961.01
x1 = 0.1755 | 4.26 | 1002.48
x1 = 0.248 | 3.92 | 1046.31
x1 = 0.3624 | 3.09 | 1094.85
x1 = 0.5583 | 1.76 | 1145.28

CCCCn1cc[n+](C)c1.F[P-](F)(F)(F)(F)F [1-butyl-3-methylimidazolium hexafluorophosphate]
[2]
Conditions | electrical conductivity [S/m] | mass density [kg/m3]
– | 0.147 | 1368.32

CC1COC(=O)O1 (stereo not given) [4-methyl-1,3-dioxolan-2-one] + CCCCn1cc[n+](C)c1.F[B-](F)(F)F
[1]
Conditions | electrical conductivity [S/m] | mass density [kg/m3]
x2 = 0.02318 | 0.537 | 1201.32
x2 = 0.04836 | 0.873 | 1202.51
x2 = 0.1028 | 1.23 | 1204.3
x2 = 0.1601 | 1.346 | 1205.43
x2 = 0.2277 | 1.332 | 1206.17
x2 = 0.3056 | 1.229 | 1206.51
x2 = 0.407 | 1.05 | 1206.44
x2 = 0.5126 | 0.875 | 1206.03
x2 = 0.6192 | 0.715 | 1205.48
x2 = 0.7173 | 0.593 | 1204.39
x2 = 0.8497 | 0.463 | 1203.39

CCCCn1cc[n+](C)c1.F[B-](F)(F)F [1-butyl-3-methylimidazolium tetrafluoroborate] + O
[1]
Conditions | electrical conductivity [S/m] | mass density [kg/m3]
x1 = 0.005053 | 1.72 | 1007
x1 = 0.008751 | 2.47 | 1013.47
x1 = 0.01927 | 3.59 | 1030.78
x1 = 0.03304 | 4.46 | 1047.81
x1 = 0.04969 | 4.9 | 1065.19
x1 = 0.07385 | 5.17 | 1084.47
x1 = 0.1053 | 5.21 | 1103.47
x1 = 0.1566 | 4.93 | 1124.77
x1 = 0.1991 | 4.55 | 1137.3
x1 = 0.2824 | 3.71 | 1154.46
x1 = 0.414 | 2.57 | 1171.08
x1 = 0.4919 | 2.04 | 1177.86
x1 = 0.5749 | 1.57 | 1183.94
x1 = 0.6838 | 1.1 | 1190.14
x1 = 0.7594 | 0.846 | 1193.53
x1 = 0.8931 | 0.527 | 1198.74
x1 = 1 | 0.353 | 1202.19
